# According to paper PMC5556071, “ATR inhibition facilitates targeting of leukemia dependence on convergent nucleotide biosynthetic pathways” (Nature Communications, 2017):
# Where “and” joins values, the source holds several entries; their conditions need not be identical. Equal entries are not always repeated.
# Test system: CEM cells
# Assay: Non-targeted LC-MS metabolite profiling: percent [13C6]glucose labeling and relative metabolite levels
# Type: cell-based, human
# Conditions: CEM cells, 12 h following release from G1 arrest, replicates #1-#6
# Description: To further investigate the functions of dCK and ATR at the G1/S transition in CEM cells, a non-targeted liquid chromatography mass spectrometry (LC-MS) assay was used to determine the utilization of labeled [^13C6]glucose and [^13C9,^15N3]deoxycytidine, the main substrates for de novo and salvage nucleotide biosynthesis, respectively. Of the 166 metabolites identified in CEM cells treated with VE-822 and/or dCKi, 105 metabolites found in all four treatment groups contained glucose-derived ^13C atoms. […] These metabolites included intermediates such as rUTP, rCTP and rCDP in the de novo dCTP biosynthesis (Fig. 1d). […] However, several deoxyribonucleotides, including dCTP, were below the limit of detection of the non-targeted LC-MS approach, raising the concern that the sensitivity of this assay is not sufficient to measure the contribution of the salvage pathway or the ratio of de novo and salvage biosynthesis to these pools. To address this problem, a newly developed targeted MS assay was developed (Fig. 1e and Supplementary Fig. 3). In this assay, samples containing either extracted dNTPs or hydrolyzed DNA from labeled cells are separated by LC for detection by a triple quadrupole mass spectrometer using multiple reaction monitoring (LC-MS/MS-MRM). The first (Q1) and third (Q3) quadrupoles function as mass filters, while the second (Q2) quadrupole serves as a collision chamber (Fig. 1e). For instance, to profile the biosynthetic composition of deoxycytidine (dC) derived from hydrolyzed DNA or dCTP, an intact, protonated dC ion is selected in Q1, followed by fragmentation of the glycosidic bond, which releases protonated cytosine in Q2, that is filtered in Q3 and detected to generate an ion chromatogram. The peak areas for the ion chromatograms of salvage [^13C9,^15N3]dC (red trace), de novo [^13C5]dC (black trace, from [^13C6]glucose) and unlabeled dC (gray trace) (Fig. 1e) are used to determine the relative contributions of the de novo and salvage routes both to dCTP pools and to DNA-incorporated dCTP.
# Cells were transferred into RPMI-1640 without glucose and supplemented with 10% dialyzed FBS (Gibco) containing the following labeled substrates: precursors for de novo [U-^13C6]glucose (Sigma-Aldrich, 389374) at 11 mM; precursors for purine salvage [U-^13C10,^15N5]dA (Cambridge Isotopes, CIL 3896), [^15N5]dA (Cambridge Isotopes, NLM-3895) and [^15N5]dG (Cambridge Isotopes, NLM-3899) at 5 µM or as indicated; and precursors for pyrimidine salvage: [U-^13C9,^15N3]dC (Silantes, 124603602) and [U-^13C10,^15N2]dT (Cambridge Isotopes, CNLM-3902) at 5 µM and [^15N2]orotate (Cambridge Isotopes, NLM-1048) at indicated concentrations. The cells were incubated for 12 h or as indicated before sample collection and processing. […]
# Non-targeted LC-MS metabolic assays. 1 x 10^6 cells were washed with ice-cold 150 mM ammonium acetate twice before adding 1 mL of ice-cold 80% methanol with 10 nM norvaline as an internal standard. After vigorous vortexing, samples were centrifuged at maximum speed, the aqueous layer was transferred to a glass vial and the metabolites were dried under vacuum. Metabolites were resuspended in 50 μL 70% acetonitrile (ACN) and 5 μL of this solution used for the mass spectrometer-based analysis. The analysis was performed on a Q Exactive (Thermo Scientific) in polarity-switching mode with positive voltage 4.0 kV and negative voltage 4.0 kV. The mass spectrometer was coupled to an UltiMate 3000RSLC (Thermo Scientific) UHPLC system. Mobile phase A was 5 mM ammonium acetate (NH4AcO), pH 9.9, B was acetonitrile and the separation achieved on a Luna […] NH2 100 A column (150 × 2.0 mm, Phenomenex). The flow was 200 μL/min, and the gradient ran from 15% A to 95% A in 18 min, followed by an isocratic step for 9 min and re-equilibration for 7 min. Metabolites were detected and quantified as area under the curve based on retention time and accurate mass (≤ 3 p.p.m.) using the TraceFinder 3.1 (Thermo Scientific). Relative amounts of […]
# [1] = metabolite CDP (KEGG C00112), listed as V
# [2] = metabolite CDP-EtA (KEGG C00570), listed as V
# [3] = metabolite CMP (KEGG C00055), listed as V
# [4] = metabolite CTP (KEGG C00063), listed as V
# [5] = metabolite Choline (KEGG C00114), listed as V
# [6] = metabolite Cinnamic acid (KEGG C00423), listed as V
# [7] = metabolite Cit (KEGG C00158), listed as V
# [8] = metabolite Citraconic acid (KEGG C02226), listed as V
# [9] = metabolite Creatine (KEGG C00300), listed as V
# [10] = metabolite Creatinine (KEGG C00791), listed as V
# [11] = metabolite Cytosine (KEGG C00380), listed as V
# [12] = metabolite DMG (KEGG C01026), listed as V
# [13] = metabolite Dihydroorotate (KEGG C00337), listed as V
# [14] = metabolite F16BP (KEGG C00354), listed as V
# [15] = metabolite Folate (KEGG C00504), listed as V
# [16] = metabolite Fru (KEGG C00095), listed as V
# [17] = metabolite Fum (KEGG C00122), listed as V
# [18] = metabolite G (KEGG C00387), listed as V
# [19] = metabolite dG (KEGG C00330), listed as V
# [20] = metabolite dTMP (KEGG C00364), listed as V
smiles,measurement,setting,value
CNCc1ccc(-c2cc(-c3nc(-c4ccc(S(=O)(=O)C(C)C)cc4)cnc3N)on2)cc1 [VE-822],Glucose labeling of CDP,[1],46.58% and 27.42% and 42.30% and 38.55% and 26.25% and 39.84%
same,Relative level of CDP,[1],3.4 and 1.2 and 1.9 and 1.6 and 0.8 and 0.754
same,Glucose labeling of CDP-EtA,[2],25.10% and 38.04% and 37.00% and 40.76% and 32.59% and 33.65%
same,Relative level of CDP-EtA,[2],0.7 (3×) and 0.9 and 0.744 and 0.633
same,Glucose labeling of CMP,[3],38.36% and 31.49% and 41.31% and 20.57% and 40.83% and 49.90%
same,Relative level of CMP,[3],3.0 and 2.7 and 2.4 and 1.7 and 0.9 and 0.7
same,Glucose labeling of CTP,[4],40.85% and 37.06% and 39.44% and 47.60% and 38.66% and 34.33%
same,Relative level of CTP,[4],1.6 and 0.5 and 0.8 and 0.848 and 0.468 and 0.448
same,Glucose labeling of Choline,[5],0.00248% (3×) and 0.00264% and 0.0024% and 0.00242%
same,Relative level of Choline,[5],1.2 and 1.3 and 1.4 and 0.849 and 0.8 (2×)
same,Glucose labeling of Cinnamic acid,[6],0.00% (5×) and 1.11e-14%
same,Relative level of Cinnamic acid,[6],1.7 and 1.5 and 1.6 and 1.0 (2×) and 0.9
same,Glucose labeling of Cit,[7],50.64% and 47.53% and 49.55% and 44.89% and 45.53% and 45.28%
same,Relative level of Cit,[7],0.9 and 0.6 and 0.7 and 0.47 and 0.449 and 0.454
same,Glucose labeling of Citraconic acid,[8],0.00% (5×) and -2.22e-14%
same,Relative level of Citraconic acid,[8],1.1 (3×) and 1.6 and 0.8 and 1.0
same,Glucose labeling of Citrulline,metabolite Citrulline (KEGG C00327),0.18%
same,Relative level of Citrulline,"metabolite Citrulline (KEGG C00327), listed as V",0.5 and 1.2 (2×) and 2.5 and 0.3 and 0.335
same,Glucose labeling of Creatine,[9],0.000881% and 0.000842% and 0.000971% and 0.000748% and 0.000833% and 0.000956%
same,Relative level of Creatine,[9],1.0 and 1.1 (2×) and 0.8 and 0.9 and 0.852
same,Glucose labeling of Creatinine,[10],0.000588% and 0.000811% and 0.000818% and 0.000809% and 0.000725% and 0.000748%
same,Relative level of Creatinine,[10],1.0 (3×) and 1.1 and 1.2 and 0.848
same,Glucose labeling of Cystathionine,metabolite Cystathionine (KEGG C02291),0.26%
same,Relative level of Cystathionine,"metabolite Cystathionine (KEGG C02291), listed as V",1.0 and 0.182 and 1.1 and 0.2 and 0.4 and 0.251
same,Glucose labeling of Cytosine,[11],0.00381% and 0.000394% and 0.000743% and 0.000956% and 0.000512% and 0.0321%
same,Relative level of Cytosine,[11],1.4 and 1.7 and 3.0 and 5.5 and 1.6 and 0.9
same,Glucose labeling of DHAP,metabolite DHAP (KEGG C00111),100.00%
same,Relative level of DHAP,"metabolite DHAP (KEGG C00111), listed as V",5.8 and 0.3 and 1.3 and 1.2 and 0.2
same,Glucose labeling of DMG,[12],0.0737% and 0.02% and 0.04% and 0.06% and 0.0145% and 0.05%
same,Relative level of DMG,[12],0.7 and 1.3 and 1.0 (2×) and 0.527 and 0.9
same,Glucose labeling of Dihydroorotate,[13],0.55% and 0.92% and 0.10% and 0.96% and 0.80% and 0.09%
same,Relative level of Dihydroorotate,[13],0.9 and 0.7 and 0.8 and 0.754 and 0.5 and 0.468
same,Glucose labeling of F16BP,[14],97.93% and 88.56% and 94.79% and 95.15% and 79.77% and 75.67%
same,Relative level of F16BP,[14],9.1 and 1.1 and 2.4 and 2.6 and 0.552 and 0.456
same,Glucose labeling of Folate,[15],0.00% (5×) and 100.00%
same,Relative level of Folate,[15],0.546 and 1.0 and 0.5 and 0.4 and 0.9
same,Glucose labeling of Fru,[16],58.79% and 68.43% and 78.80% and 67.26% and 65.64% and 42.97%
same,Relative level of Fru,[16],3.7 and 3.5 and 2.9 and 1.6 and 1.8 and 2.4
same,Glucose labeling of Fum,[17],15.89% and 14.12% and 10.85% and 10.48% and 12.71% and 7.86%
same,Relative level of Fum,[17],1.3 and 0.8 (2×) and 1.1 and 0.565 and 0.5
same,Glucose labeling of G,[18],0.55% (4×) and 100.00% (2×)
same,Relative level of G,[18],1.1 and 0.852 and 0.9 and 1.6
same,Glucose labeling of dATP,metabolite dATP (KEGG C00131),100.00%
same,Relative level of dATP,metabolite dATP (KEGG C00131),0.6
same,Glucose labeling of dCTP,metabolite dCTP (KEGG C00458),100.00%
same,Relative level of dCTP,metabolite dCTP (KEGG C00458),0.0
same,Glucose labeling of dG,[19],0.38% and 0.48% and 0.49% and 0.0145% and 0.37% and 0.09%
same,Relative level of dG,[19],1.7 (2×) and 1.1 (2×) and 6.1 and 1.0
same,Relative level of dGDP,metabolite dGDP (KEGG C00361),61.2
same,Glucose labeling of dGDP,"metabolite dGDP (KEGG C00361), listed as V",100.00% (5×) and 0.38%
same,Glucose labeling of dTMP,[20],0.55% and 100.00% (4×) and 82.28%
same,Relative level of dTMP,[20],0.7 and 6.1 and 3.9 and 1.9 and 0.6 and 0.453
same,Glucose labeling of dTTP,metabolite dTTP (KEGG C00459),100.00%
same,Relative level of dTTP,"metabolite dTTP (KEGG C00459), listed as V",0.47 and 0.4
same,"Glucose labeling, Leu/Ile",,0.00%
same,"Glucose labeling, NAD+",,0.00%
same,"Glucose labeling, P-Creatine",,0.0737%
same,"Glucose labeling, P-EtA",,0.0123%
same,"Glucose labeling, PEP",,100.00%
same,"Glucose labeling, Phe",,0.00%
same,"Glucose labeling, Pipecolate",,0.00%
same,"Glucose labeling, Pyr",,100.00%
same,"Glucose labeling, Sarc (C00213)",,0.0369%
same,"Glucose labeling, Thr (C00188)",,0.00%
same,"Glucose labeling, Trigonelline (C01004)",,0.00%
